# From patent US20250360108A1, “CATALYTIC INHIBITOR OF PROTEIN PHOSPHATASE 5 ACTIVATES THE EXTRINSIC APOPTOTIC PATHWAY BY DISRUPTING COMPLEX II” (The Research Foundation for the State University of New York, priority 2022, published 2025)
# Residues, ends and D or L forms follow the SMILES beside them. *: point of attachment. Cbz = O=C(OCc1ccccc1)*; CH2F = FC*
# Legend:
# [1] = test system: PP5; assay: PP5 inhibition in cells by immunoblotting of PP5 substrates phospho-S211-GR and phospho-S13-Cdc37; format: cell-based, human; details: 786-O cells, indicated amounts, 24 hrs
# Procedure: Protein Extraction, Immunoprecipitation and Immunoblotting: Protein extraction from mammalian cells was carried out using methods previously described. Cell lysates were quantified using 1× Bradford reagent (Biorad). For immunoprecipitation, cell lysates were incubated with anti-FLAG antibody conjugated beads (Sigma) or anti-HA conjugated beads (ThermoFisher Scientific) at 4° C. for 2 hrs. Endogenous IPs were achieved by incubating lysate with anti-PP5 antibody (Cell Signaling), anti-FADD antibody (Cell Signaling), or anti-RIPK1 antibody (Cell Signaling) overnight followed by protein G agarose (Invitrogen) at 4° C. for 2 hrs. Immunopellets were washed 4 times with fresh lysis buffer (20 mM Tris-HCl (pH 7.4), 100 mM NaCl, 1 mM MgCl2, 0.1% NP40, protease inhibitor cocktail (Roche), and PhosSTOP (Roche)) and eluted in 5× Laemmli buffer. Precipitated proteins were separated by SDS-PAGE and transferred to nitrocellulose membranes. Co-immunoprecipitated proteins or proteins from cell lysate were detected with antibodies recognizing FLAG, 6×-His (ThermoFisher Scientific), GAPDH (ENZO Life Sciences), Cdc37 (StressMarq), GR, phospho-GR (S211), PP5, caspase-3, cleaved caspase-3, caspase-8, cleaved caspase-8, cleaved caspase-7, cleaved-PARP, phospho-RIPK1 (S166), phospho-FADD (S194), PP2A-C, VHL (Cell Signaling), phospho-RIPK1 (S161) (Invitrogen), PP5 and phospho-Cdc37 (S13) (Abcam). […]
# [2] = target: T1, recombinant PP5-His6 (Homo sapiens, UniProt P53041); assay: PP5 Phosphatase Activity and Inhibition Assay (PiPer phosphate release, phospho-S211-GR peptide); format: biochemical; details: phospho-S211-GR peptide substrate
# T1 construct: GST (N, cleaved yes); made in house
# T1 sequence (P53041 1-499): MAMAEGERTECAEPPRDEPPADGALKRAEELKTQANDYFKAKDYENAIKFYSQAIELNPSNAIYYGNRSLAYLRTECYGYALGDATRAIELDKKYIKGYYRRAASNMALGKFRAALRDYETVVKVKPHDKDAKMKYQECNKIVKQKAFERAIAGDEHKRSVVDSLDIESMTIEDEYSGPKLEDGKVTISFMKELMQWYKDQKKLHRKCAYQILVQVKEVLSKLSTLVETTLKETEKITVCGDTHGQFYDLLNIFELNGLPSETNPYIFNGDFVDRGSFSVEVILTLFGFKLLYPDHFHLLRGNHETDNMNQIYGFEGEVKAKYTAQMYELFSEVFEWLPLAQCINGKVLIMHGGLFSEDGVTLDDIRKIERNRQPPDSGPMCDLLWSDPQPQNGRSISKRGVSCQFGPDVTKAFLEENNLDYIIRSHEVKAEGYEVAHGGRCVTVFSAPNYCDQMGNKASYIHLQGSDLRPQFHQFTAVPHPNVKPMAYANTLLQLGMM
# Procedure: PP5 inhibitors specifically bind to the phosphatase-catalytic domain: We next sought to measure the inhibition of PP5 activity in vitro with P5 and P13.
# Bacterial Expression and Protein Purification of PP5: Human PPP5c was cloned into pGEX6P1 with an N-terminal GST tag and C-terminal His6 tag. Transformed cells were grown at 37° C. in LB with 100 mg/L ampicillin until OD600=0.6 and induced with 1 mM IPTG. Cells were harvested by centrifugation and lysed by sonication in lysis buffer (50 mM Hepes (pH 8.0), 150 mM NaCl, 0.5 mM TCEP and EDTA-free protease inhibitor cocktail tablet (Roche)). Lysate was incubated with talon resin (Takara Bio) for 1 hr at 4° C. The resin was washed three times with lysis buffer and PP5 was eluted with lysis buffer containing 250 mM imidazole. Precision protease was added to the elution overnight to cleave the GST tag and the sample was then mixed with Glutathione Sepharose resin (Cytiva) to remove the free GST and un-cleaved protein. The sample was applied to a Superdex S75 16/60 size exclusion column (GE Healthcare) and eluted in 100 mM NaCl, 20 mM Hepes pH 8, 02 mM TCEP.
# PP5 Phosphatase Activity and Inhibition Assay: The phosphatase activity of the recombinant PP5-His6 was measured using the PiPer™ Phosphate Assay Kit (Thermo Fisher Scientific) as described in the manufacturer's protocol. Standard curve with linear fit line was created from 0-1 nM Pifinal concentration reactions. 1 nM of PP5-His6 was added to each reaction with indicated amounts of custom synthesized substrate phospho-S211-glucocorticoid receptor (PhosS211-GR) peptide (see Key Resources Table) as specific substrate (Thermo Fisher Scientific). Reactions were run in triplicate and incubated at 37° C. for over 10 min. […] Enzyme kinetics were calculated and plotted using Lineweaver Burk plot and web-based tool (https://www.aatbio.com/tools/ic50-calculator) for calculating IC50 and (https://bioinfo-abcc.ncifcrf.gov/IC50_Ki_Converter/index.php) for converting IC50 to Ki values for inhibitors of enzyme activity and ligand binding.
# [3] = test system: 786-O cells; assay: Induction of apoptosis by immunoblotting of apoptotic markers; format: cell-based, human
# Procedure: Method Details Cell Transfection and Treatment: Cultured cells were split and then transfected the following day when about 40% confluent with each construct using Mirus TranslT-2020 (MirusBio) according to manufacturer's protocol. Cells were incubated at 37° C. and then extracted or collected for analysis after 24 hrs (HEK293) or 72 hrs (ccRCC cell lines). Short interfering RNA (siRNA) scramble control and PPP5C (PP5) targeting duplexes were purchased from OriGene (SKU: SR321403A, SR321403B, and SR321403C). Indicated cells were transiently transfected with the siRNA using Mirus TranslT-2020. For PP5 knock-down, either 30 nM of control siRNA or 10 nM of each PP5 siRNA duplex (A, B and C) were mixed prior to transfection. Cells were incubated at 37° C. for 72 hrs, then harvested for protein extraction. […] Cells were then harvested for protein extraction.
# (§1) Protein Extraction, Immunoprecipitation and Immunoblotting: Protein extraction from mammalian cells was carried out using methods previously described. Cell lysates were quantified using 1× Bradford reagent (Biorad). For immunoprecipitation, cell lysates were incubated with anti-FLAG antibody conjugated beads (Sigma) or anti-HA conjugated beads (ThermoFisher Scientific) at 4° C. for 2 hrs. Endogenous IPs were achieved by incubating lysate with anti-PP5 antibody (Cell Signaling), anti-FADD antibody (Cell Signaling), or anti-RIPK1 antibody (Cell Signaling) overnight followed by protein G agarose (Invitrogen) at 4° C. for 2 hrs. Immunopellets were washed 4 times with fresh lysis buffer (20 mM Tris-HCl (pH 7.4), 100 mM NaCl, 1 mM MgCl2, 0.1% NP40, protease inhibitor cocktail (Roche), and PhosSTOP (Roche)) and eluted in 5× Laemmli buffer. Precipitated proteins were separated by SDS-PAGE and transferred to nitrocellulose membranes. Co-immunoprecipitated proteins or proteins from cell lysate were detected with antibodies recognizing FLAG, 6×-His (ThermoFisher Scientific), GAPDH (ENZO Life Sciences), Cdc37 (StressMarq), GR, phospho-GR (S211), PP5, caspase-3, cleaved caspase-3, caspase-8, cleaved caspase-8, cleaved caspase-7, cleaved-PARP, phospho-RIPK1 (S166), phospho-FADD (S194), PP2A-C, VHL (Cell Signaling), phospho-RIPK1 (S161) (Invitrogen), PP5 and phospho-Cdc37 (S13) (Abcam). Secondary antibodies raised against mouse and rabbit (Cell Signaling) were used (See Key Resources Table).
# [4] = test system: 786-O cells; assay: Cell viability / proliferation MTT assay; format: cell-based, human; details: varying doses, 48 hrs
# Procedure: Cell Viability Assay: Renal cancer cell lines 786-O, Caki-2, Caki-1, and A498 as well as the normal renal cell line HK-2 were plated at 10,000 cells per well in 96-well plates. […] After 24 or 48 hrs, cell viability assay was performed using the Quick Cell Proliferation Kit Plus (BioVision) according to the manufacturer's protocol. The absorbance at 450 nm was measured on a Tecan Infinite M200 Pro and proliferation rate was calculated.
# [5] = target: T2, PP5-FLAG (Homo sapiens, UniProt P53041); assay: Biotin-P5 and biotin-P13 pulldown from HEK293 lysate; format: binding; details: 0.01-10 μM
# T2 construct: expressed in transfected cells; host or cells: HEK293
# T2 sequence (P53041 1-499): T1 sequence (P53041 1-499)
# Procedure: Biotin-P5 and biotin-P13 Pulldown: HEK293 cells were transiently transfected with PP5-FLAG or active site point mutants and protein lysate extracted. Lysate was incubated with 0.01-10 μM biotin-P5 or biotin P-13 as indicated at 4° C. for 1 hr then added to streptavidin-conjugated agarose and incubated at 4° C. for 1 hr. Following three washes with fresh extraction buffer bound proteins were eluted in 5× Laemmli buffer and analyzed by Western blot. […] Samples were run by SDS PAGE, transferred to nitrocellulose membrane, and analyzed by Western blot.
# [6] = test system: PP2A; assay: Biotin-P5 / biotin-P13 pulldown in 786-O lysate, co-pulldown of PP2A; format: binding, human; details: cell lysate, 1 μM
# [7] = test system: Hsp90; assay: Time course with Hsp90 inhibitor SNX-2112, protein levels by immunoblot; format: cell-based, human; details: HEK293 cells, 2 μM
# Procedure: Since a vast majority of PP5 substrates are also clients of the molecular chaperone Hsp90, we asked whether RIPK1 and FADD are clients of this chaperone. We therefore performed a time course assay using the Hsp90 inhibitor SNX-2112 (2 μM) in HEK293 cells. […] To further understand the relationship between FADD and Hsp90, we immunoprecipitated endogenous FADD from 786-O cells and examined the co-IP of Hsp90 (FIG. 4G).
# as §1
smiles,measurement,setting,value
Cc1noc(C)c1S(=O)(=O)Nc1ccc(O)c(C(=O)O)c1 [Compound P0],phosphorylation of PP5 substrates phospho-S13-Cdc37 and phospho-S211-GR,[1],dose dependent increase in phosphorylation
"COC(=O)c1cccc(NS(=O)(=O)c2c(C)noc2C)c1 [Compound P5, Methyl m-(3,5-dimethyl-4-isoxazolylsulfonylamino)benzoate]","mode of PP5 inhibition (enzyme kinetics, Lineweaver-Burk)",[2],competitive inhibitors
same,Ki,[2]; IC50 converted to Ki,277 ± 50 nM
same,cleavage of apoptotic markers caspase 3 and 8 and PARP,"[3]; 10 μM, 24 hrs",cleavage of the apoptotic markers caspase 3 and 8 and PARP
same,proliferation of 786-O cells (MTT),[4],significantly inhibited the proliferation
"COC(=O)C[C@H](NC(=O)[C@H](C)NC(=O)[C@@H](NC(=O)OCc1ccccc1)C(C)C)C(=O)CF [z-VAD-fmk, reference compound] (Cbz-Val-Ala-Asp(OMe)-CH2F)",effect on IC261-induced apoptosis,"[3]; 10 μM for 1 hr, then IC261 for 16 hrs",reversed this effect
"Cc1noc(C)c1S(=O)(=O)Nc1cccc(C(=O)N2CCN(C(=O)CCC[C@@H]3SC[C@@H]4NC(=O)N[C@@H]43)CC2)c1 [biotin-P5, N-[3-(4-(4-[(3aS,4S,6aR)-2-Oxo-hexahydro-1H-thieno[3,4-d]imidazol-4-yl]butanoyl)piperazine-1-carbonyl)phenyl]-3,5-dimethyl-1,2-oxazole-4-sulfonamide]",binding of PP5-FLAG to biotinylated compound (streptavidin pulldown),[5],binds
same,binding to PP2A,[6],did not bind
CC1(C)CC(=O)c2c(C(F)(F)F)nn(-c3ccc(C(N)=O)c(N[C@H]4CC[C@H](O)CC4)c3)c2C1 [SNX-2112],RIPK1 protein levels,[7]; 16 hr,decreased RIPK1 protein levels
same,FADD protein levels,[7]; throughout time course,did not observe a decrease in FADD levels
same,"Hsp90 clients Tsc2, Akt and phos-Ser473-Akt protein levels",[7]; time course,destabilized and degraded
"Cc1noc(C)c1S(=O)(=O)N(CCCCl)c1ccc(Oc2ccccc2)cc1 [Compound P059, (3-Chloropropyl)(3,5-dimethyl-4-isoxazolylsulfonyl)(p-phenoxyphenyl)amine]","induction of apoptosis (cleaved PARP, cleaved caspase 8)","[3]; 10 μM, 24 hrs",had the ability to induce apoptosis
"Cc1noc(C)c1S(=O)(=O)N(CCCC#N)c1ccc(Oc2ccccc2)cc1 [Compound P075, 4-[(3,5-Dimethyl-4-isoxazolylsulfonyl)(p-phenoxyphenyl)amino]butyronitrile]","induction of apoptosis (cleaved PARP, cleaved caspase 8)","[3]; 10 μM, 24 hrs",had the ability to induce apoptosis
"CCCCN(c1ccc(Oc2ccccc2)cc1)S(=O)(=O)c1c(C)noc1C [Compound P058, N-Butyl(3,5-dimethyl-4-isoxazolylsulfonyl)(p-phenoxyphenyl)amine]","induction of apoptosis (cleaved PARP, cleaved caspase 8)","[3]; 10 μM, 24 hrs",had the ability to induce apoptosis
